Here are results for 63 compounds from patent US8796460B2, “Compounds for inhibiting KSP kinesin activity” (Mercky Sharp & Dohme Corp., priority 2007, dated 2014).

Where only a bound is given, the exact number is not on record here.

The first experiment relates to HCT116 colon cancer cells. The experiment is described as follows: KSP Cellular Assay (percent of cells staining positive for Phos-Histone H3 / Phos-MPM2). The settings on record: Homo sapiens, HCT-116, 16 h, Table 101; HCT116 cells, 16 hours with drug; read-out: ED50 (nM) Range. The class given is cell-based. The method in brief:
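HCT116 cells treated with compound for 16 hours, fixed and stained with Hoechst plus Phos-Histone H3 (ser10) and Phos-MPM2 antibodies. Percent positive cells from immunofluorescence imaging; EC50 by sigmoidal nonlinear regression over 8-point dilutions in duplicate.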
Turning to `CC(=O)N1N=C(c2cc(F)ccc2F)SC12CCNc1ccccc12` (stereo not drawn) [compound 110], the EC50 is not above 500 nM.

Consider `CC(=O)N1N=C(c2cc(F)ccc2F)SC12CC[S+]([O-])c1ccccc12` (stereo not drawn) [compound 108], for which the EC50 is more than 1000 nM.

Regarding `CC(=O)N1N=C(c2cc(F)ccc2F)SC12CCCc1ncccc12` (stereo not drawn) [compound 123], the EC50 was more than 1000 nM.

With `CC(=O)N1N=C(c2cc(F)ccc2F)SC12CCCc1ccsc12` (stereo not drawn) [compound 107], the EC50 is more than 500 nM.

For `CC(=O)N1N=C(c2cc(F)ccc2F)SC12CCCc1ccccc12` (stereo not drawn) [compound 101], the EC50 is more than 1000 nM.

On to `CC(=O)N1C(=O)C2(SC(c3cc(F)ccc3F)=NN2C(C)=O)c2ccccc21` (stereo not drawn) [compound 128], for which the EC50 was more than 1000 nM.

The experiment is the same for the next values; noted with them: Homo sapiens, HCT-116, 16 h, Table 401; HCT116 cells, 16 hours with drug; read-out: ED50 (nM) Range.
For `O=C([C@@H]1CCCN1)N1N=C(c2cc(F)ccc2F)SC12CCCc1ccsc12` (stereo partly drawn) [compound 427], the EC50 was more than 1000 nM.

With `N[C@H]1CC[C@@H](C(=O)N2N=C(c3cc(F)ccc3F)SC23CCOc2ccccc23)C1` (stereo partly drawn) [compound 476], the EC50 is more than 500 nM.

Regarding `CN(C)CCCC(=O)N1N=C(c2cc(F)ccc2F)SC12Cc1ccccc12` (stereo not drawn) [compound 463], the EC50 is not above 500 nM.

For `O=C(c1cccnc1)N1N=C(c2cc(F)ccc2F)SC12CCOc1ccccc12` (stereo not drawn) [compound 431], the EC50 was more than 1000 nM.

On to `N[C@@H]1CC[C@H](C(=O)N2N=C(c3cc(F)ccc3F)SC23CCOc2ccccc23)C1` (stereo partly drawn) [compound 477], for which the EC50 was more than 500 nM.

Take `N[C@H](C(=O)N1N=C(c2cc(F)ccc2F)SC12CCCc1ccsc12)C1CC1` (stereo partly drawn) [compound 428]: the EC50 is more than 1000 nM.

For `O=C(C1CCNCC1)N1N=C(c2cc(F)ccc2F)SC12CCc1ccccc12` (stereo not drawn) [compound 422], the EC50 is more than 1000 nM.

On to `O=C(C1CCNCC1)N1N=C(c2cc(F)ccc2F)SC12CCSc1ccccc12` (stereo not drawn) [compound 406], for which the EC50 is more than 1000 nM.

On to `O=C(Cc1ccncc1)N1N=C(c2cc(F)ccc2F)SC12CCOc1ccccc12` (stereo not drawn) [compound 485], for which the EC50 was not above 500 nM.

Take `O=C(CCC1CCCCN1)N1N=C(c2cc(F)ccc2F)SC12CCc1ccccc12` (stereo not drawn) [compound 461]: the EC50 was more than 500 nM.

With `O=C(CC1CNC1)N1N=C(c2cc(F)ccc2F)SC12CCc1ccccc12` (stereo not drawn) [compound 460], the EC50 is not above 500 nM.

Consider `COCC(=O)N1N=C(c2cc(F)ccc2F)SC12CCOc1ccccc12` (stereo not drawn) [compound 466], for which the EC50 is more than 1000 nM.

Turning to `COCCOCC(=O)N1N=C(c2cc(F)ccc2F)SC12CCOc1ccccc12` (stereo not drawn) [compound 472], the EC50 is more than 1000 nM.

For `O=C(C1CCCN1)N1N=C(c2cc(F)ccc2F)SC12CCCc1ccccc12` (stereo not drawn) [compound 410], the EC50 was more than 1000 nM.

Regarding `O=C(C1CC1)N1N=C(c2cc(F)ccc2F)SC12CCOc1ccccc12` (stereo not drawn) [compound 464], the EC50 fell in the range of 500 to 1000 nM.

Turning to `N[C@H](C(=O)N1N=C(c2cc(F)ccc2F)SC12CCOc1ccccc12)C1CC1` (stereo partly drawn) [compound 419], the EC50 is more than 1000 nM.

Consider `CCC(=O)N1N=C(c2cc(F)ccc2F)SC12CCOc1ccccc12` (stereo not drawn) [compound 465], for which the EC50 was not above 500 nM.

With `N[C@H]1CCC[C@@H](C(=O)N2N=C(c3cc(F)ccc3F)SC23CCOc2ccccc23)C1` (stereo partly drawn) [compound 479], the EC50 was more than 500 nM.

As to `NCCCC(=O)N1N=C(c2cc(F)ccc2F)SC12CCc1ccccc12` (stereo not drawn) [compound 437], the EC50 is not above 500 nM.

For `O=C([C@@H]1CCCN1)N1N=C(c2cc(F)ccc2F)SC12CCc1ccccc12` (stereo partly drawn) [compound 423], the EC50 was more than 1000 nM.

`N[C@H]1C[C@H](C(=O)N2N=C(c3cc(F)ccc3F)SC23CCOc2ccccc23)C1` (stereo partly drawn) [compound 500]: the EC50 is more than 500 nM.

Take `CC(C)[C@H](O)C(=O)N1N=C(c2cc(F)ccc2F)SC12CCCc1ccccc12` (stereo partly drawn) [compound 402]: the EC50 is more than 1000 nM.

As to `O=C(C1CCCNC1)N1N=C(c2cc(F)ccc2F)SC12CCOc1ccccc12` (stereo not drawn) [compound 407], the EC50 is more than 1000 nM.

Take `O=C(CCC1CCCNC1)N1N=C(c2cc(F)ccc2F)SC12CCOc1ccccc12` (stereo not drawn) [compound 482]: the EC50 was not above 500 nM.

With `O=C(CCCN1CCCC1)N1N=C(c2cc(F)ccc2F)SC12CCOc1ccccc12` (stereo not drawn) [compound 492], the EC50 was not above 500 nM.

`O=C(C1CCNCC1)N1N=C(c2cc(F)ccc2F)SC12CCCc1ccccc12` (stereo not drawn) [compound 401]: the EC50 is more than 1000 nM.

Take `O=C(CO)N1N=C(c2cc(F)ccc2F)SC12CCOc1ccccc12` (stereo not drawn) [compound 473]: the EC50 is 500 to 1000 nM.

On to `O=C(C1CCCCN1)N1N=C(c2cc(F)ccc2F)SC12CCOc1ccccc12` (stereo not drawn) [compound 404], for which the EC50 was more than 1000 nM.

For `NCCCC(=O)N1N=C(c2cc(F)ccc2F)SC12CCOc1ccccc12` (stereo not drawn) [compound 434], the EC50 was not above 500 nM.

In the case of `N[C@H]1CC[C@H](C(=O)N2N=C(c3cc(F)ccc3F)SC23CCOc2ccccc23)CC1` (stereo partly drawn) [compound 480], the EC50 is more than 500 nM.

Still in this experiment, the particulars now being: Homo sapiens, HCT-116, 16 h, Table 701; HCT116 cells, 16 hours with drug; read-out: EC50 (nM) Range.
On to `CC(C)N1N=C(c2cc(F)ccc2F)SC12CCOc1ccccc12` (stereo not drawn) [compound 702], for which the EC50 was more than 1000 nM.

The experiment is the same for the next values; noted with them: Homo sapiens, HCT-116, 16 h, Table 801; HCT116 cells, 16 hours with drug; read-out: EC50 (nM) Range.
For `CC(=O)N1N=C(c2cc(F)ccc2F)S[C@@]12c1ccccc1OC[C@H]2CCNO` [compound 813], the EC50 was not above 500 nM.

For the compound `CC(=O)N1N=C(c2cc(F)ccc2F)S[C@@]12c1ccccc1OC[C@H]2CCN` [compound 815], the EC50 was not above 500 nM.

Take `CC(=O)N1N=C(c2cc(F)ccc2F)S[C@]12c1ccccc1OC[C@@H]2CCN` [compound 816]: the EC50 was more than 1000 nM.

As to `CC(=O)N1N=C(c2cc(F)ccc2F)S[C@@]12c1cc(F)c(F)cc1OC[C@H]2CCN` [compound 807], the EC50 was not above 500 nM.

Regarding `CC(=O)N1N=C(c2cc(F)ccc2F)S[C@]12c1cc(F)ccc1OC[C@H]2CCN` [compound 803], the EC50 is not above 500 nM.

The experiment is the same for the next values; noted with them: Homo sapiens, HCT-116, 16 h, table of Example 901; HCT116 cells, 16 hours with drug; read-out: EC50 (nM) Range.
On to `CC(=O)N1N=C(c2cc(F)ccc2F)S[C@@]12c1ccccc1OC[C@@H]2CC#N` [compound 902], for which the EC50 is not above 500 nM.

Regarding `CC(=O)N1N=C(c2cc(F)ccc2F)S[C@]12c1ccccc1C[C@@H]2CC#N` [compound 907], the EC50 is not above 500 nM.

Turning to `CC(=O)N1N=C(c2cc(F)ccc2F)S[C@]12c1ccccc1C[C@H]2CC#N` [compound 906], the EC50 was not above 500 nM.

In the case of `CC(=O)N1N=C(c2cc(F)ccc2F)S[C@]12c1ccccc1OC[C@H]2CC#N` [compound 904], the EC50 is 500 to 1000 nM.

The experiment is the same for the next values; noted with them: Homo sapiens, HCT-116, 16 h, table of Example 1801 (headed Table 1201); HCT116 cells, 16 hours with drug; read-out: EC50 (nM) Range.
Turning to `CC(=O)N1N=C(c2ccc(F)c(F)c2)S[C@@]12c1cc(F)ccc1OC[C@H]2CCN` [compound 1820], the EC50 was not above 500 nM.

Consider `CC(=O)N1N=C(c2ccccc2)S[C@]12c1ccccc1OC[C@@H]2CCN` [compound 1809], for which the EC50 was more than 1000 nM.

For `CC(=O)N1N=C(c2ccc(F)cc2F)S[C@@]12c1ccccc1OC[C@H]2CCN` (single isomer, unassigned) [compound 1801], the EC50 was not above 500 nM.

The experiment is the same for the next values; noted with them: Homo sapiens, HCT-116, 16 h, table of Example 1901; HCT116 cells, 16 hours with drug; read-out: EC50 (nM) Range.
As for `CO[C@@H](C)C(=O)N1N=C(c2cc(F)ccc2F)S[C@@]12c1cc(F)ccc1OC[C@H]2CCN` [compound 1902], the EC50 is not above 500 nM.

Turning to `COCCOCC(=O)N1N=C(c2cc(F)ccc2F)S[C@@]12c1cc(F)ccc1OC[C@H]2CCN` [compound 1906], the EC50 was not above 500 nM.

Consider `COCCOCC(=O)N1N=C(c2cc(F)ccc2F)S[C@@]12c1cc(F)cc(F)c1OC[C@H]2CCN` [compound 1911], for which the EC50 was not above 500 nM.

Consider `CO[C@H](C)C(=O)N1N=C(c2cc(F)ccc2F)S[C@]12c1cc(F)ccc1OC[C@@H]2CCN` [compound 1903], for which the EC50 is more than 1000 nM.

Regarding `CO[C@@H](C)C(=O)N1N=C(c2cc(F)ccc2F)S[C@]12c1cc(F)ccc1OC[C@@H]2CCN` (single isomer, unassigned) [compound 1901], the EC50 was more than 1000 nM.

In the case of `CO[C@@H](C)C(=O)N1N=C(c2cc(F)ccc2F)S[C@]12c1cc(F)cc(F)c1OC[C@@H]2CCN` [compound 1908], the EC50 is more than 1000 nM.

The experiment is the same for the next values; noted with them: Homo sapiens, HCT-116, 16 h, table of Example 2001; HCT116 cells, 16 hours with drug; read-out: EC50 (nM) Range.
Consider `NCC[C@H]1COc2ccccc2[C@]12SC(c1cc(F)ccc1F)=NN2C(=O)C(F)F` [compound 2005], for which the EC50 is not above 500 nM.

Consider `COCC(=O)N1N=C(c2cc(F)ccc2F)S[C@@]12c1ccccc1OC[C@H]2CCN` [compound 2004], for which the EC50 was not above 500 nM.

Staying with this experiment, now noted: Homo sapiens, HCT-116, 16 h, table of Example 2101; HCT116 cells, 16 hours with drug; read-out: EC50 (nM) Range.
Take `CCOC(=O)N1N=C(c2cc(F)ccc2F)S[C@@]12c1cc(F)ccc1OC[C@H]2CCN` (single isomer, unassigned) [compound 2101]: the EC50 was not above 500 nM.

In the case of `CCOC(=O)N1N=C(c2cc(F)ccc2F)S[C@]12c1ccccc1OC[C@@H]2CCN` [compound 2104], the EC50 is not above 500 nM.

Staying with this experiment, now noted: Homo sapiens, HCT-116, 16 h, table of Example 2201; HCT116 cells, 16 hours with drug; read-out: EC50 (nM) Range.
As to `NCC[C@H]1COc2ccccc2[C@]12SC(c1cc(F)ccc1F)=NN2C(=O)N1CCOCC1` [compound 2206], the EC50 is more than 1000 nM.

For `CN(C)C(=O)N1N=C(c2cc(F)ccc2F)S[C@]12c1cc(F)ccc1OC[C@@H]2CCN` [compound 2202], the EC50 is more than 1000 nM.

Staying with this experiment, now noted: Homo sapiens, HCT-116, 16 h, table of Example 2301; HCT116 cells, 16 hours with drug; read-out: EC50 (nM) Range.
With `Fc1ccc(F)c(C2=NN3CCC4COc5ccccc5C43S2)c1` (stereo not drawn) [compound 2302], the EC50 was more than 1000 nM.

Staying with this experiment, now noted: Homo sapiens, HCT-116, 16 h, table of Example 2901; HCT116 cells, 16 hours with drug; read-out: EC50 (nM) Range.
In the case of `CC(=O)N1N=C(c2cc(F)ccc2F)S[C@]12c1cc(F)ccc1NC[C@H]2CCN` [compound 2903], the EC50 is not above 500 nM.
